As usually defined, the IC50 is the point on the concentration scale where inhibition reaches its midpoint. Lower therefore signals greater potency in that assay.

This assay has as its target T1, cellulose synthase (Novacetimonas hansenii, UniProt Q59167).
T1 construct: FLAG; made in house; host or cells: Escherichia coli SURE, as in Preparation 1
The assay can be described thus: Inhibitory concentration IC50 against cellulose synthase. Type of assay: biochemical, acetic acid bacteria. As to conditions: cellulose synthase (B-3) 1.5 U/mL. As to the method:
Hyaluronan synthase aqueous solution (B-1) obtained in Preparation 1 was dissolved to a concentration of 1.5 U/mL in 940 μL of aqueous solution 1 (50 mM phosphate buffer (pH of 7.5, 25° C.) containing 5 mM magnesium chloride and 0.05 mM sodium uridine diphosphate) in a 1.5 mL-tube. The tube was allowed to stand at 40° C. for 20 minutes in a constant temperature water bath. To the tube was added 50 μL of temperature-adjusted (40° C.) substrate solution [1-1] (a solution obtained by dissolving uridine diphosphate-glucuronic acid sodium salt and uridine diphosphate-N-acetylglucosamine both to a concentration of 20 mM in buffer solution B (50 mM phosphate buffer, pH of 7.5, 25° C.)). Thereby, enzyme reaction solution (I-1) was obtained. […] The supernatant (80 μL) was analyzed by HPLC under the following conditions, and the peak areas of hyaluronan were recorded. […]
The inhibitory concentration IC50 was measured in a similar manner as in “Measurement of the inhibitory concentration IC50 against hyaluronan synthase”, except that “cellulose synthase aqueous solution (B-3) obtained in Preparation 12” was used in place of “hyaluronan synthase aqueous solution (B-1) obtained in Preparation 1”, “substrate solution [1-3] […]
The inhibitory concentration IC50 was also determined in a similar manner, except that the amount of cellulose synthase aqueous solution (B-3) was changed from 1.5 U/mL to 45 U/mL. […]

T1 sequence (Q59167 whole entry): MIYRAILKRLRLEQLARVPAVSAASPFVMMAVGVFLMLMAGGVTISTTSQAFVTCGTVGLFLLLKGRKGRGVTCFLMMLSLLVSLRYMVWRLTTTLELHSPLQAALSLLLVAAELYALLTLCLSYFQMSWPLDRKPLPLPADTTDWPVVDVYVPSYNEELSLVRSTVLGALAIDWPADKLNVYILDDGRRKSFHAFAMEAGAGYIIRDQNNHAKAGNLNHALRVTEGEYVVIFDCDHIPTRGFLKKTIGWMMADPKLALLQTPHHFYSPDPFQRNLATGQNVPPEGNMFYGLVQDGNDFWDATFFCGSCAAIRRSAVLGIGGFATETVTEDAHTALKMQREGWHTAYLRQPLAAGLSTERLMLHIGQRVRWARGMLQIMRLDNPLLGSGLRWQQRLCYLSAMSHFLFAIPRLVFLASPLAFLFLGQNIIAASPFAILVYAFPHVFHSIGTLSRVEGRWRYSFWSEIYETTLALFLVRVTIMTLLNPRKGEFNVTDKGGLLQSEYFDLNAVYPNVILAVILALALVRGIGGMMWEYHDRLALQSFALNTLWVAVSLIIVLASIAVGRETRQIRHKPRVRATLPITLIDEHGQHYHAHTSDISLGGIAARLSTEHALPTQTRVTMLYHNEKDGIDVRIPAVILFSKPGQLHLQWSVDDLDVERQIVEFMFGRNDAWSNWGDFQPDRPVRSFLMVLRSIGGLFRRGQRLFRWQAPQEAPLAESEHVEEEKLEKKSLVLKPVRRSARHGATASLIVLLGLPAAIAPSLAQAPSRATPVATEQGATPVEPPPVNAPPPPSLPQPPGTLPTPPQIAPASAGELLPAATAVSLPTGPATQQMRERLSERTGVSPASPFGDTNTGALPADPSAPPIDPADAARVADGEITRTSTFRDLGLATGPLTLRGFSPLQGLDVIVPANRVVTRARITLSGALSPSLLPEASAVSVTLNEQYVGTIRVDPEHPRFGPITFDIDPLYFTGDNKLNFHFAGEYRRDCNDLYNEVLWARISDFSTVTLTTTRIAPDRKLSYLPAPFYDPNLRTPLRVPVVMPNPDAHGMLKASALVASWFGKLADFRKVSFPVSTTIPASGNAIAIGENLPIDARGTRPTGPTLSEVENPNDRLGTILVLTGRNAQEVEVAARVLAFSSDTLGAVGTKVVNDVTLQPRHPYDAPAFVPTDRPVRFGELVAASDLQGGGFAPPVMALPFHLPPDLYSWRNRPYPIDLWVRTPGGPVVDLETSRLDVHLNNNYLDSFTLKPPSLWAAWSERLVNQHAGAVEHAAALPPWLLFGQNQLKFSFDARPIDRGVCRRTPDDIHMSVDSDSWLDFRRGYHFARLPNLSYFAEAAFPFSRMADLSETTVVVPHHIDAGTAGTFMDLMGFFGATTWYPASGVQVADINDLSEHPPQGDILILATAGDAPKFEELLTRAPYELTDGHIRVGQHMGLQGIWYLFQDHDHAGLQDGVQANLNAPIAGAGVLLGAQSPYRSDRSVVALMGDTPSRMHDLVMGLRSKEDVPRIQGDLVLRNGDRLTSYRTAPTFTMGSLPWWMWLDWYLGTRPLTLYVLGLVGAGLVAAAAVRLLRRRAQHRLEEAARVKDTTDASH

With `O=c1ccn([C@@H]2O[C@H](COP(=O)(O)OP(=O)(O)O)[C@@H](O)[C@H]2O)c(=O)[nH]1` [uridine diphosphate], the IC50 stood at 100 µM.

Values taken from patent publication US9670514B2, “Method for producing polysaccharide” (SANYO CHEMICAL INDUSTRIES, LTD., priority 2011, dated 2017).
